US6716833B2, “Acetylenic α-amino acid-based sulfonamide hydroxamic acid tace inhibitors” (priority 1999, dated 2004)
Where a name gives a salt, the structure may show the parent alone. Read-outs that look alike come from different tables or passages of the source.

Columns and labels:
[1] = biological target: MMP-9 (Homo sapiens, UniProt P14780); assay: MMP-9 inhibition (thiopeptide or fluorescent peptide substrate); assay type: biochemical; settings: read-out: MMP-9 IC50
Method: (§1) The enzyme activity is measured by the rate of the color increase. The thiopeptide substrate is made up fresh as a 20 mM stock in 100% DMSO and the DTNB is dissolved in 100% DMSO as a 100 mM stock and stored in the dark at room temperature. Both the substrate and DTNB are diluted together to 1 mM with substrate buffer (50 mM HEPES pH 7.5, 5 mM CaCl2) before use. The stock of enzyme is diluted with buffer (50 mM HEPES, pH 7.5, 5 mM CaCl2, 0.02% Brij) to the desired final concentration.
(§2) Alternatively, a fluorescent peptide substrate is used. In this test procedure, the peptide substrate contains a fluorescent group and a quenching group. Upon cleavage of the substrate by an MMP, the fluorescence that is generated is quantitated on the fluorescence plate reader. The assay is run in HCBC assay buffer (50 mM HEPES, pH 7.0, 5 mM Ca^+2, 0.02% Brij, 0.5% Cysteine), with human recombinant MMP-1, MMP-9, or MMP-13. […] For the assay, substrate and enzymes are diluted in HCBC buffer to the desired concentrations. Compounds are added to the 96 well plate containing enzyme and the reaction is started by the addition of substrate.
(§3) For either the thiopeptide or fluorescent peptide test procedures, the slope of the line is calculated and represents the reaction rate. The linearity of the reaction rate is confirmed (r^2>0.85). The mean (x±sem) of the control rate is calculated and compared for statistical significance (p<0.05) with drug-treated rates using Dunnett's multiple comparison test.

[2] = biological target: TNF-α converting enzyme (TACE) (Homo sapiens, UniProt P78536); assay: TACE inhibition (fluorescent peptidyl substrate); assay type: biochemical; settings: read-out: TACE IC50
TNF-α converting enzyme (TACE), sequence (P78536 215-824, species assumed): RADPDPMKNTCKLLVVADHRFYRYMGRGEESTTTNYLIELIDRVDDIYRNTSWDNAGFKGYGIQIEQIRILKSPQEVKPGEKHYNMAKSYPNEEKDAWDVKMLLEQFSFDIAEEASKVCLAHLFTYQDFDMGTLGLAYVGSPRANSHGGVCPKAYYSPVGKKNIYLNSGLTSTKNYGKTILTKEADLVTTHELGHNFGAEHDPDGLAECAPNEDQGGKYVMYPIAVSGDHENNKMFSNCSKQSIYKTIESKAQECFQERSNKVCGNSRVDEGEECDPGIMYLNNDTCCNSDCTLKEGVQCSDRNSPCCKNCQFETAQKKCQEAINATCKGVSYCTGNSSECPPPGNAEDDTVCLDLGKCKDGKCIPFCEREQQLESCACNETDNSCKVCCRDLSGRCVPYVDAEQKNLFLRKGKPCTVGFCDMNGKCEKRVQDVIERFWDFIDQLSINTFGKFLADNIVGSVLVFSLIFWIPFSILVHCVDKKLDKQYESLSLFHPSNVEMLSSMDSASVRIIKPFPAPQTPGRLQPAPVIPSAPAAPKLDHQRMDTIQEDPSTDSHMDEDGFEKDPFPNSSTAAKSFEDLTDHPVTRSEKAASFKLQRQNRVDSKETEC

[3] = biological target: T1, MMP-1 (Homo sapiens, UniProt P03956); assay: MMP-1 inhibition (thiopeptide or fluorescent peptide substrate); assay type: biochemical; settings: read-out: MMP-1 IC50
T1 sequence (P03956 100-469): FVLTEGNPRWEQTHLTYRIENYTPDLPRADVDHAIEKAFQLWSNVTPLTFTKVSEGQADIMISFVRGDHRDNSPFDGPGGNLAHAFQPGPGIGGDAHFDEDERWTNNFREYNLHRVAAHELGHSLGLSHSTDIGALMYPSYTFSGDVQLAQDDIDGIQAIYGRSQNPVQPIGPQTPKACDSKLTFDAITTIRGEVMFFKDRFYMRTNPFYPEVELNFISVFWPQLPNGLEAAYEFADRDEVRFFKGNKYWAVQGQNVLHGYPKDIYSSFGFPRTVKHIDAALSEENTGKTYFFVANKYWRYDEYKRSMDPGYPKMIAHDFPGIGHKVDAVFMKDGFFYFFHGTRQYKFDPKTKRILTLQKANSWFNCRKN
Method: as §1, §2, §3

[4] = biological target: MMP-13 (Homo sapiens, UniProt P45452); assay: MMP-13 inhibition (thiopeptide or fluorescent peptide substrate); assay type: biochemical; settings: read-out: MMP-13 IC50
Method: as §1, §2, §3

MMP-9, sequence (P14780 94-707): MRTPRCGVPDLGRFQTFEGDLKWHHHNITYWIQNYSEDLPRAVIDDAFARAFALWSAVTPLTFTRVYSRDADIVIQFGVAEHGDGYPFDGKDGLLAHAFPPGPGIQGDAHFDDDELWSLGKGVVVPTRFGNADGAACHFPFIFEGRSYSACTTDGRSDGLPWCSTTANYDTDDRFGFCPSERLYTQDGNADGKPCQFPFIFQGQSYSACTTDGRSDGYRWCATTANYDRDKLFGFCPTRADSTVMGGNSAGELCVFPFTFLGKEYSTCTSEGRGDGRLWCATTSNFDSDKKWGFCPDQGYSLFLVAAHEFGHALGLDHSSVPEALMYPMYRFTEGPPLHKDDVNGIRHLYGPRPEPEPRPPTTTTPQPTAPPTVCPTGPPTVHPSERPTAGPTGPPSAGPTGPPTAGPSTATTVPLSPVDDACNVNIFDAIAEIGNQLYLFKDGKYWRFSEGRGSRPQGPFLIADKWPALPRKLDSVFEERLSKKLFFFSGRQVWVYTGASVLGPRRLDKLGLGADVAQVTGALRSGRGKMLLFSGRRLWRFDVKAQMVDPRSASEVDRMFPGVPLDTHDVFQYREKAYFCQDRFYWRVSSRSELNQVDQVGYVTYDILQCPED

CC#CCOc1ccc(S(=O)(=O)N(C)C(C(=O)NO)C(C)(C)SCCN2CCOCC2)cc1 (centres unmarked) (as salt: hydrochloride) [Example 140, 2-({[4-(2-Butynyloxy)phenyl]sulfonyl)(methyl)amino]-N-hydroxy-3 Methyl-3-[(2(4-morpholinylethyl)sulfanyl]-butanamide Hydrochloride]
melting point: 50 °C (dec.)

CC#CCOc1ccc(S(=O)(=O)N(C)C(C(=O)NO)C(C)(C)SCCn2ccnc2)cc1 (centres unmarked) (as salt: hydrochloride) [Example 144, 2-({[4-(2-Butynyloxy)phenyl]sulfonyl)(methyl)amino]-N-hydroxy-3 Methyl-3-{[2-(1H-imidazol-1-yl)ethyl]sulfanyl}butanamide]
melting point: 67 to 70 °C

CC#CCOc1ccc(S(=O)(=O)NC(C(=O)NO)c2ccc(OCCN3CCCC3)cc2)cc1 (centres unmarked) (as salt: hydrochloride) [Example 205, 2-({[4-(2-Butynyloxy)phenyl]sulfonyl}amino)-N-hydroxy-2-{4-[2-(1-pyrrolidinyl)ethoxy]phenyl}acetamide]
melting point: 70 °C

CC#CCOc1ccc(S(=O)(=O)N2CCSC3(CCN(Cc4ccccc4)CC3)C2C(=O)NO)cc1 (centres unmarked) (as salt: hydrochloride) [Example 241, 9-Benzyl-4-{[4-(2-butynyloxy)phenyl]sulfonyl}-N-hydroxy-1-thia-4,9-diazaspiro[5.5]undecane-5-carboxamide]
melting point: 151 to 153 °C

CC#CCOc1ccc(S(=O)(=O)NC(C(=O)NO)C(C)(C)SCC(=O)O)cc1 (centres unmarked) (as salt: sodium) [Example 166, tert-Butyl {[2-({[4-2-Butynyloxy)phenyl]sulfonyl}amino)-3-(hydroxyamino)-1,1-dimethyl-3-oxopropyl]sulfanyl Acetic Acid, Sodium Salt]
melting point: 75 °C (dec.)

CC#CCOc1ccc(S(=O)(=O)N(C)C(C(=O)NO)C(C)(C)SCCN2CCCC2)cc1 (centres unmarked) [Example 143, 2-({[4-(2-Butynyloxy)phenyl]sulfonyl)(methyl)amino]-N-hydroxy-3 Methyl-3-{[2(1-pyrrolidinyl)ethyl]sulfanyl}butanamide]
melting point: 55 to 57 °C

CC#CCOc1ccc(S(=O)(=O)N(C)C(C(=O)NO)C(C)(C)SCC(C)N(CC)CC)cc1 (centres unmarked) [Example 148, 2-({[4-(2-Butynyloxy)phenyl]sulfonyl)(methyl)amino]-N-hydroxy-3 Methyl-3-{[2-(diethylamino)propyl]sulfanyl}butanamide]
melting point: 65 to 68 °C

CC1(C)SCCN(S(=O)(=O)c2ccc(OCC#CCCCOC3CCCCO3)cc2)C1C(=O)NO (centres unmarked) [Example 248, N-Hydroxy-2,2-dimethyl-4-[(4-{[6-(tetrahydro-2H-pyran-2-yloxy)-2-hexynyl]oxy}phenyl)sulfonyl]-3-thiomorpholine Carboxamide]
IC50 ([1]; Table 10): 48 nM | IC50 ([2]; Table 10): 92 nM | IC50 ([3]; Table 10): 98 nM | IC50 ([4]; Table 10): 7.3 nM

CC1(C)SCCN(S(=O)(=O)c2ccc(OCC#CCCCO)cc2)C1C(=O)NO (centres unmarked) [Example 249, N-Hydroxy-4-({4-[(6-hydroxy-2-hexynyl)oxy]phenyl}sulfonyl)-2,2-dimethyl-3-thiomorpholine Carboxamide]
IC50 ([1]; Table 10): 377 nM | IC50 ([2]; Table 10): 40 nM | IC50 ([3]; Table 10): 159 nM | IC50 ([4]; Table 10): 86 nM

CC(C)(C)OC(=O)NCCCC#CCOc1ccc(S(=O)(=O)N2CCSC(C)(C)[C@@H]2C(=O)NO)cc1 [Example 250, tert-Butyl 6-[4-({(3S)-3-[(Hydroxyamino)carbonyl]-2,2-dimethylthiomorpholinyl}sulfonyl)phenoxy]-4-hexynylcarbamate]
IC50 ([1]; Table 10): 160 nM | IC50 ([2]; Table 10): 153 nM | IC50 ([3]; Table 10): 42 nM | IC50 ([4]; Table 10): 1.7 nM

CC1(C)SCCN(S(=O)(=O)c2ccc(OCC#CCCCN)cc2)[C@H]1C(=O)NO [Example 251, (3S)-4-({4-[(6-Amino-2-hexynyl)oxy]phenyl}sulfonyl)-N-hydroxy-2,2-dimethyl-3-thiomorpholine Carboxamide]
IC50 ([1]; Table 10): 28 nM | IC50 ([2]; Table 10): 28 nM | IC50 ([3]; Table 10): 226 nM | IC50 ([4]; Table 10): 8.7 nM

CC#CCOc1ccc(S(=O)(=O)N2CCS(=O)(=O)C(C)(C)[C@@H]2C(=O)NO)cc1 [Example 257, (3S)-4-{[4-(2-Butynyloxy)phenyl]sulfonyl}-N-hydroxy-2,2-dimethyl-3-thiomorpholine Carboxamide 1,1-Dioxide]
IC50 ([1]; Table 9): 64 nM | IC50 ([2]; Table 9): 24 nM | IC50 ([3]; Table 9): 24 nM | IC50 ([4]; Table 9): 23 nM

CC(C)(C)OC(=O)NCC#CCOc1ccc(S(=O)(=O)N2CCSC(C)(C)C2C(=O)NO)cc1 (centres unmarked) [Example 266, tert-Butyl 4-[4-({3-[(Hydroxyamino)carbonyl]-2,2-dimethyl-4-thiomorpholinyl}sulfonyl)phenoxy]-2-butynylcarbamate]
IC50 ([1]; Table 10): 31 nM | IC50 ([2]; Table 10): 74 nM | IC50 ([3]; Table 10): 26 nM | IC50 ([4]; Table 10): 4 nM

CN(CC#CCOc1ccc(S(=O)(=O)N2CCSC(C)(C)C2C(=O)NO)cc1)C(=O)OC(C)(C)C (centres unmarked) [Example 267, tert-Butyl 4-[4-({3-[(Hydroxyamino)carbonyl]-2,2-dimethyl-4-thiomorpholinyl}sulfonyl)phenoxy]-2-butynyl(methyl)carbamate]
IC50 ([1]; Table 10): 1260 nM | IC50 ([2]; Table 10): 112 nM | IC50 ([3]; Table 10): 364 nM | IC50 ([4]; Table 10): 37 nM

CC#CCOc1ccc(S(=O)(=O)N2C[C@H](C)SC(C)(C)[C@@H]2C(=O)NO)cc1 [Example 272, (3S,6S)-4-{[4-(2-Butynyloxy)phenyl]sulfonyl}-N-hydroxy-2,2,6-trimethyl-3-thiomorpholinecarboxamide]
IC50 ([1]; Table 11): 166 nM | IC50 ([2]; Table 11): 24 nM | IC50 ([3]; Table 11): 7.8 nM | IC50 ([4]; Table 11): 8.7 nM

CC#CCOc1ccc(S(=O)(=O)N2C[C@@H](CN)SC(C)(C)[C@@H]2C(=O)NO)cc1 [Example 275, (3S,6R)-trans-6-(Aminomethyl)-4-{[4-(2-butynyloxy)phenyl]sulfonyl}-N-hydroxy-2,2-dimethyl-3-thiomorpholinecarboxamide Hydrochloride]
IC50 ([1]; Table 11): 22 nM | IC50 ([2]; Table 11): 128 nM | IC50 ([3]; Table 11): 30 nM | IC50 ([4]; Table 11): 16 nM

CC#CCOc1ccc(S(=O)(=O)N2C[C@H](CN)SC(C)(C)[C@@H]2C(=O)NO)cc1 [Example 276, (3S,6S)-cis-6-(Aminomethyl)-4-{[4-(2-butynyloxy)phenyl]sulfonyl}-N-hydroxy-2,2-dimethyl-3-thiomorpholinecarboxamide Hydrochloride]
IC50 ([1]; Table 11): 84 nM | IC50 ([2]; Table 11): 57 nM | IC50 ([3]; Table 11): 21 nM | IC50 ([4]; Table 11): 24 nM

CC#CCOc1ccc(S(=O)(=O)N2CSC(C)(C)[C@@H]2C(=O)NO)cc1 [Example 286, (4S)-3-{[4-(2-Butynyloxy)phenyl]sulfonyl}-N-hydroxy-5,5-dimethyl-1,3-thiazolidine-4-carboxamide]
IC50 [1]: 1790 nM | IC50 [2]: 20 nM | IC50 [3]: 3040 nM | IC50 [4]: 852 nM

CC#CCOc1ccc(S(=O)(=O)N2CCN(C(=O)c3ccccc3)CCC2C(=O)NO)cc1 (centres unmarked) [Example 289, 1-Benzoyl-4-{[4-(2-butynyloxy)phenyl]sulfonyl}-N-hydroxy-1,4-diazepane-5-carboxamide]
IC50 [1]: 12 nM | IC50 [2]: 10 nM | IC50 [3]: 113 nM | IC50 [4]: 4 nM

CC#CCOc1ccc(S(=O)(=O)N2CCSCCC2C(=O)NO)cc1 (centres unmarked) [Example 294, 4-{[4-(2-Butynyloxy)phenyl]sulfonyl}-N-hydroxy-1,4-thiazepine-5-carboxamide]
melting point: 95 to 98 °C
